Measured values as given in ChEMBL document CHEMBL5226352, “Inhibition of AlkB Nucleic Acid Demethylases: Promising New Epigenetic Targets” (J Med Chem, 2021).
Blank lines part the entries; values can stand above or below the compound they belong to.

Experiments:
[1] = target: T1, Alpha-ketoglutarate-dependent dioxygenase FTO (Homo sapiens, UniProt Q9C0B1); test: Inhibition of human FTO (31 to 505 residues) demethylase activity using 15-mer ssRNA with CUUGUCA(m6A)CAGCAGA sequence as substrate incubated for 0.5 hrs by LC-MS/MS analysis
T1 sequence (Q9C0B1 whole entry, the tested form may be a part): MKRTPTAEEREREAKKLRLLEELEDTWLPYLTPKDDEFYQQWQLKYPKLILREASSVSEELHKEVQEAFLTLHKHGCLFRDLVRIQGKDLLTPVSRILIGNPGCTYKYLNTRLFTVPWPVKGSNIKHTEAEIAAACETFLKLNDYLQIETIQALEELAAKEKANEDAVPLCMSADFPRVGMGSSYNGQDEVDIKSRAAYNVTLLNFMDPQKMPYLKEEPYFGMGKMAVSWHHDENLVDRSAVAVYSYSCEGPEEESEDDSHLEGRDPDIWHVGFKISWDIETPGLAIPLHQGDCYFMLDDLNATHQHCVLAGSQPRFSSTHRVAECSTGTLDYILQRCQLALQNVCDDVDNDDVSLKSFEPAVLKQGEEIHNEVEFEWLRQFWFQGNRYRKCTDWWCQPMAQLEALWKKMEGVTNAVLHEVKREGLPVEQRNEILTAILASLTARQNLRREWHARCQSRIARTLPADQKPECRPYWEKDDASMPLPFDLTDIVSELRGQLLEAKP

[2] = target: T1, Alpha-ketoglutarate-dependent dioxygenase FTO; test: Inhibition of N-terminal 31 residues truncated FTO (unknown origin) demethylase activity using m6A containing ssRNA as substrate incubated for 1 hr by LC-MS analysis
RNA demethylase ALKBH5 [3] = target: T2, RNA demethylase ALKBH5 (Homo sapiens, UniProt Q6P6C2); test: Inhibition of human ALKBH5 (66 to 292 residues) demethylase activity using 49 nt methylated ssDNA as substrate incubated for 2 hrs by GelRed staining based restriction endonuclease digestion assay
T2 sequence (Q6P6C2 whole entry, the tested form may be a part): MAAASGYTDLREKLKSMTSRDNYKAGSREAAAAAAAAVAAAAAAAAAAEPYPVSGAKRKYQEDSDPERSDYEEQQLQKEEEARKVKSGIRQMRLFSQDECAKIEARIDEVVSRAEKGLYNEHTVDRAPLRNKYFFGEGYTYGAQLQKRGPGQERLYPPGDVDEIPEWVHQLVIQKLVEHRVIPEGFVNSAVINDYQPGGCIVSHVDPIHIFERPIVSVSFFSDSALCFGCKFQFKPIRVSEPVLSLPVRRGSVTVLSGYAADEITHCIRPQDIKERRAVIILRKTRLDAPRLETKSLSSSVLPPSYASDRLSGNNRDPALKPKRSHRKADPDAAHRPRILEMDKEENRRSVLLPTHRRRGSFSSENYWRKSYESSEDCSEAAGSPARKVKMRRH

[4] = target: T3, Alpha-ketoglutarate-dependent dioxygenase alkB homolog 3 (Homo sapiens) (UniProt Q96Q83); test: Inhibition of ALKBH3 (unknown origin) at 50 uM relative to control
T3 sequence (whole entry): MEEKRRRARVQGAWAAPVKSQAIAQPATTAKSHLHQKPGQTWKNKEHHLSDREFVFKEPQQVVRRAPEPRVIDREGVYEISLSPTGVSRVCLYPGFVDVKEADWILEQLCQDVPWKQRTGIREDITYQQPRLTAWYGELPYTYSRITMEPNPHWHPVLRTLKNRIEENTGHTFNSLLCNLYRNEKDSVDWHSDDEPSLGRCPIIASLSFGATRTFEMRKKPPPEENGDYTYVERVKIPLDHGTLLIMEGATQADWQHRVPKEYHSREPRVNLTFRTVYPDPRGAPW

[5] = target: T4, Alpha-ketoglutarate-dependent dioxygenase AlkB (Escherichia coli (strain K12), UniProt P05050); test: Inhibition of Escherichia coli AlkB-mediated demethylation using 40-mer single N3-meC containing ssDNA as substrate preincubated for 1 hr followed by substrate addition by fluorescence based assay
T4 sequence (P05050 whole entry): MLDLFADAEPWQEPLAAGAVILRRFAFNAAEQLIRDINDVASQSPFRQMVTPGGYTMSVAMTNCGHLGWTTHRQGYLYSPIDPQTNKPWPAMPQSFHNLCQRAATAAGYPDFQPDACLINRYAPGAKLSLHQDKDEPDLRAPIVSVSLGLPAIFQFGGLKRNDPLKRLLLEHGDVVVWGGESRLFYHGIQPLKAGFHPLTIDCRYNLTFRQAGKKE

[6] = target: T4, Alpha-ketoglutarate-dependent dioxygenase AlkB; test: Inhibition of Escherichia coli AlkB DNA repair activity using 1-methyladenine with GC-1meA-AGGTCCCGTAGTGCG sequence as substrate by FDH coupled assay
RNA demethylase ALKBH5 [7] = target: T2, RNA demethylase ALKBH5; test: Inhibition of human ALKBH5 (74 to 294 residues) expressed in Escherichia coli BL21(DE3) V2R-pRARE cells using biotin labeled m6A-ss-RNA with UACACUCGAUCUGG(m6A)CUAAAGCUGCUC sequence as substrate incubated for 1 hr by TopCount scintillation counting method
[8] = target: T1, Alpha-ketoglutarate-dependent dioxygenase FTO; test: Inhibition of FTO (unknown origin) demethylation activity
[9] = Oral bioavailability in rat; format: ADME, organism-based; conditions: in vivo
[10] = target: T5, DNA oxidative demethylase ALKBH2 (Homo sapiens, UniProt Q6NS38); test: Inhibition of human ALKBH2 demethylase activity by restriction endonuclease digestion assay
T5 sequence (Q6NS38 whole entry): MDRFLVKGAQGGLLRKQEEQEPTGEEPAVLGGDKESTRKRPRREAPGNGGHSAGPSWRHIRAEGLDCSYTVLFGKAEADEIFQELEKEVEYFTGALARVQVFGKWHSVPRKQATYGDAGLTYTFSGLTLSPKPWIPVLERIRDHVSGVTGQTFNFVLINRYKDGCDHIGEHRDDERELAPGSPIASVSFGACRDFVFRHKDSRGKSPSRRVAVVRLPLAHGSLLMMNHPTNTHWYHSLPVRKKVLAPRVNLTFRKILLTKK

RNA demethylase ALKBH5 [11] = target: T2, RNA demethylase ALKBH5; test: Inhibition of N-terminal His-tagged human ALKBH5 (66 to 292 residues)
[12] = target: T1, Alpha-ketoglutarate-dependent dioxygenase FTO; test: Inhibition of N-terminal 31 residues truncated His-tagged human FTO demethylase activity expressed in Escherichia coli BL21(DE3) cells
[13] = target: T6, Alpha-ketoglutarate-dependent dioxygenase alkB homolog 3 (Homo sapiens, UniProt Q96Q83); test: Inhibition of human ALKBH3 demethylase activity by restriction endonuclease digestion assay
T6 sequence (Q96Q83 whole entry): T3 sequence (whole entry)

[14] = target: T6, Alpha-ketoglutarate-dependent dioxygenase alkB homolog 3; test: Inhibition of ALKBH3 (unknown origin) using 3-methyl cytosine oligo DNA as substrate incubated for 1 hr by SYBR green dye based RT-PCR analysis
[15] = target: T6, Alpha-ketoglutarate-dependent dioxygenase alkB homolog 3; test: Inhibition of human ALKBH3 by HPLC analysis
[16] = target: T4, Alpha-ketoglutarate-dependent dioxygenase AlkB; test: Inhibition of Escherichia coli AlkB by HPLC analysis
[17] = target: T5, DNA oxidative demethylase ALKBH2; test: Inhibition of human ALKBH2 by HPLC analysis

SMILES: COc1cc2c(cc1Cl)C(C)(C)CC(C)(c1cc(Cl)c(O)cc1O)O2 (configuration not stated)
IC50 [1]: 39.2 µM

SMILES: O=C1OC2(c3ccc(O)cc3Oc3cc(O)ccc32)c2ccccc21 [FLUORESCEIN]
IC50 [2]: 3.23 µM
IC50 (RNA demethylase ALKBH5 [3]): > 100 µM

SMILES: Cc1ccc2[nH]c(-n3nc(C)cc3O)nc2c1
bioavailability [9]: 7.2%

SMILES: Cc1ccc(Cl)c(Nc2ccccc2C(=O)O)c1Cl [MECLOFENAMIC ACID]
IC50 [10]: > 100 µM
IC50 (RNA demethylase ALKBH5 [11]): > 100 µM
IC50 [12]: 8 µM
IC50 [13]: > 100 µM

SMILES: Cc1nn(-c2nc3cc(F)ccc3[nH]2)c(O)c1-c1ccccc1
IC50 [14]: 2.9 µM

SMILES: O=C(O)c1cc(O)c2c(c1)C(=O)c1cccc(O)c1C2=O [RHEIN]
IC50 [15]: 5.3 µM
IC50 [16]: 12.7 µM
IC50 [17]: 9.1 µM

Continued, values first:

inhibition [4]: 0%
IC50 [5]: 19.4 µM
SMILES: O=C1c2ccc(-c3ccccc3)cc2C(NC2CCCCC2)C1Cl (configuration not stated)

IC50 [6]: 10.2 µM
IC50 (RNA demethylase ALKBH5 [7]): 2.9 µM
SMILES: O=C(O)c1ccc(O)c2ncccc12

IC50 [8]: 3.5 µM
SMILES: CCN(CC)C(=O)/C(C#N)=C/c1cc(O)c(O)c([N+](=O)[O-])c1 [ENTACAPONE]
